# From patent US12384797B2, “Thioeno[3,2-b] pyridin-7-amine compounds for treating familial dysautonomia” (PTC THERAPEUTICS, INC., priority 2019, dated 2025)
# System: Elongator complex protein 1 (ELP1, also referred to as IKBKAP)
# Assay: IKBKAP-HTRF assay (IKBKAP protein in lysates of FD patient-derived fibroblasts)
# Type: cell-based, human
# Conditions: 48 hours incubation, 7-point concentration curve
# How it was run: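 Sandwich HTRF with two labelled anti-IKAP antibodies (overnight, 4 °C) measured IKBKAP in lysates of FD patient fibroblasts. Cells were exposed to compound for 48 h at 37 °C (7-point curve, 3.16-fold steps, triplicates). EC2x is the dose doubling IKBKAP versus DMSO control; MFI is sample ΔF divided by vehicle ΔF.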
Compound,EC2x for IKBKAP protein expression (concentration producing two times the amount of IKBKAP protein vs DMSO vehicle control),MFI (maximum fold increase in IKBKAP protein abundance relative to the vehicle control)
"CS(=O)(=O)C[C@H](N)Cc1sc2c(NCc3ccco3)cc(Cl)nc2c1Br [Compound 117, 2-[(2R)-2-amino-3-(methanesulfonyl)propyl]-3-bromo-5-chloro-N-[(furan-2-yl)methyl]thieno[3,2-b]pyridin-7-amine]",**** (between >0.005 μM and ≤0.02 μM is indicated by four stars (****)),***** (>4.9 is indicated by five stars (*****))
"CSC[C@H](N)Cc1sc2c(NCc3ccco3)cc(Cl)nc2c1Br [Compound 118, 2-[(2R)-2-amino-3-(methylsulfanyl)propyl]-3-bromo-5-chloro-N-[(furan-2-yl)methyl]thieno[3,2-b]pyridin-7-amine]",***** (≤0.005 μM is indicated by five stars (*****)),***** (>4.9 is indicated by five stars (*****))
"C=C[C@H](N)Cc1cc2nc(Cl)cc(NCc3ccco3)c2s1 [Compound 119, 2-[(2R)-2-aminobut-3-en-1-yl]-5-chloro-N-[(furan-2-yl)methyl]thieno[3,2-b]pyridin-7-amine]",**** (between >0.005 μM and ≤0.02 μM is indicated by four stars (****)),**** (between >3.9 and ≤4.9 is indicated by four stars (****))
"N[C@H](Cc1sc2c(NCc3ccco3)cc(Cl)nc2c1Cl)C(=O)Nc1ccccc1F [Compound 120, 3-(3,5-dichloro-7-{[(furan-2-yl)methyl]amino}thieno[3,2-b]pyridin-2-yl)-N-(2-fluorophenyl)-D-alaninamide]",**** (between >0.005 μM and ≤0.02 μM is indicated by four stars (****)),**** (between >3.9 and ≤4.9 is indicated by four stars (****))
"N[C@H](Cc1sc2c(NCc3ccco3)cc(Cl)nc2c1Cl)C(=O)O [Compound 121, 3-(3,5-dichloro-7-{[(furan-2-yl)methyl]amino}thieno[3,2-b]pyridin-2-yl)-D-alanine]",**** (between >0.005 μM and ≤0.02 μM is indicated by four stars (****)),**** (between >3.9 and ≤4.9 is indicated by four stars (****))
"N[C@H](Cc1sc2c(NCc3ccco3)cc(Cl)nc2c1Cl)C(=O)Nc1ccccc1 [Compound 122, 3-(3,5-dichloro-7-{[(furan-2-yl)methyl]amino}thieno[3,2-b]pyridin-2-yl)-N-phenyl-D-alaninamide]",**** (between >0.005 μM and ≤0.02 μM is indicated by four stars (****)),***** (>4.9 is indicated by five stars (*****))
"C#C[C@H](N)Cc1sc2c(NCc3ccco3)cc(Cl)nc2c1C [Compound 123, 2-[(2R)-2-aminobut-3-yn-1-yl]-3-methyl-5-chloro-N-[(furan-2-yl)methyl]thieno[3,2-b]pyridin-7-amine]",***** (≤0.005 μM is indicated by five stars (*****)),***** (>4.9 is indicated by five stars (*****))
"N[C@H](Cc1sc2c(NCc3ccco3)cc(Cl)nc2c1Cl)C(=O)Nc1ccccc1F [Compound 124, 3-(3,5-dichloro-7-{[(furan-2-yl)methyl]amino}thieno[3,2-b]pyridin-2-yl)-N-(2-fluorophenyl)-D-alaninamide]",**** (between >0.005 μM and ≤0.02 μM is indicated by four stars (****)),***** (>4.9 is indicated by five stars (*****))
"C[C@H](F)[C@H](N)Cc1sc2c(NCc3nccs3)cc(Cl)nc2c1Br [Compound 125, 2-[(2R,3S)-2-amino-3-fluorobutyl]-3-bromo-5-chloro-N-[(1,3-thiazol-2-yl)methyl]thieno[3,2-b]pyridin-7-amine]",***** (≤0.005 μM is indicated by five stars (*****)),***** (>4.9 is indicated by five stars (*****))
"Cc1c(C[C@@H](N)[C@H](C)F)sc2c(NCc3cccs3)cc(Cl)nc12 [Compound 126, 2-[(2R,3S)-2-amino-3-fluorobutyl]-5-chloro-3-methyl-N-[(thiophen-2-yl)methyl]thieno[3,2-b]pyridin-7-amine]",***** (≤0.005 μM is indicated by five stars (*****)),***** (>4.9 is indicated by five stars (*****))
"C[C@H](N)C(O)c1sc2c(NCc3cccs3)cc(Cl)nc2c1Cl (stereo partly drawn) [Compound 127, (2S)-2-amino-1-(3,5-dichloro-7-{[(thiophen-2-yl)methyl]amino}thieno[3,2-b]pyridin-2-yl)propan-1-ol]",**** (between >0.005 μM and ≤0.02 μM is indicated by four stars (****)),***** (>4.9 is indicated by five stars (*****))
"Cc1c(C[C@@H](N)[C@H](C)F)sc2c(NCc3nccs3)cc(Cl)nc12 [Compound 128, 2-[(2R,3S)-2-amino-3-fluorobutyl]-5-chloro-3-methyl-N-[(1,3-thiazol-2-yl)methyl]thieno[3,2-b]pyridin-7-amine]",***** (≤0.005 μM is indicated by five stars (*****)),***** (>4.9 is indicated by five stars (*****))
"Cc1c(C[C@H](C)N)sc2c(NCc3ncc(F)s3)cc(Cl)nc12 [Compound 129, 2-[(2S)-2-aminopropyl]-5-chloro-N-[(5-fluoro-1,3-thiazol-2-yl)methyl]-3-methylthieno[3,2-b]pyridin-7-amine]",**** (between >0.005 μM and ≤0.02 μM is indicated by four stars (****)),***** (>4.9 is indicated by five stars (*****))
"C[C@H](N)C(F)c1sc2c(NCc3cccs3)cc(Cl)nc2c1Cl (stereo partly drawn) [Compound 130, 2-[(2S)-2-amino-1-fluoropropyl]-3,5-dichloro-N-[(thiophen-2-yl)methyl]thieno[3,2-b]pyridin-7-amine]",***** (≤0.005 μM is indicated by five stars (*****)),***** (>4.9 is indicated by five stars (*****))
"COC(=O)[C@H](N)Cc1sc2c(NCc3ccco3)cc(Cl)nc2c1C [Compound 131, methyl 3-(5-chloro-7-{[(furan-2-yl)methyl]amino}-3-methylthieno[3,2-b]pyridin-2-yl)-D-alaninate]",**** (between >0.005 μM and ≤0.02 μM is indicated by four stars (****)),**** (between >3.9 and ≤4.9 is indicated by four stars (****))
"C[C@H](N)C(F)(F)c1sc2c(NCc3cccs3)cc(Cl)nc2c1Cl [Compound 132, 2-[(2S)-2-amino-1,1-difluoropropyl]-3,5-dichloro-N-[(thiophen-2-yl)methyl]thieno[3,2-b]pyridin-7-amine]",**** (between >0.005 μM and ≤0.02 μM is indicated by four stars (****)),***** (>4.9 is indicated by five stars (*****))
"Cc1c(C[C@@H](N)C(=O)Nc2ccc(C#N)cc2)sc2c(NCc3ccco3)cc(Cl)nc12 [Compound 133, 3-(5-chloro-7-{[(furan-2-yl)methyl]amino}-3-methylthieno[3,2-b]pyridin-2-yl)-N-(4-cyanophenyl)-D-alaninamide]",***** (≤0.005 μM is indicated by five stars (*****)),***** (>4.9 is indicated by five stars (*****))
"Cc1c(C[C@@H](N)C(=O)Nc2ccccn2)sc2c(NCc3ccco3)cc(Cl)nc12 [Compound 134, 3-(5-chloro-7-{[(furan-2-yl)methyl]amino}-3-methylthieno[3,2-b]pyridin-2-yl)-N-pyridin-2-yl-D-alaninamide]",**** (between >0.005 μM and ≤0.02 μM is indicated by four stars (****)),***** (>4.9 is indicated by five stars (*****))
"Cc1c(C[C@@H](N)C(=O)Nc2cnccn2)sc2c(NCc3ccco3)cc(Cl)nc12 [Compound 135, 3-(5-chloro-7-{[(furan-2-yl)methyl]amino}-3-methylthieno[3,2-b]pyridin-2-yl)-N-pyrazin-2-yl-D-alaninamide]",***** (≤0.005 μM is indicated by five stars (*****)),**** (between >3.9 and ≤4.9 is indicated by four stars (****))
